Measurements from patent US20260344665A1, “FUNGICIDAL COMPOUND” (priority 2022, published 2026).

What was measured:
[1] = test system: ROS production in wheat leaf discs; assay: Reactive oxygen species (ROS) burst assay with wheat leaf discs; conditions: INA 100 μM; treated vs. control, 40 minutes
[2] = test system: Blumeria graminis f.sp. tritici; assay: Powdery mildew assay in wheat (haustoria formation); assay type: in vivo; conditions: Blumeria graminis, 48 h, read-out: haustoria formation (% relative to control)
[3] = test system: Zymoseptoria tritici; assay: Leaf painting assay in wheat seedling, Zymoseptoria tritici preventive; assay type: in vivo; conditions: Experiment 1; 188.00 ppm; tip segment; preventive
Procedure: (§1) Wheat seedlings of the variety Riband (for Zymoseptoria tritici trials) or variety Arina (for Puccinia recondite trials) were grown in the glasshouse until 14d after seeding. At this time, such seedlings usually have a first leaf fully emerged (designated L1), a second leaf fully emerged (L2) and a third leaf (L3) that is partially emerged and in the process of development. Using a permanent pen, two dots were applied on the second leaf such as to generate three segments of roughly equal size: Segment A (at the base), segment B (middle part) and segment C (tip of the leaf). A stock solution of the compound of Formula (I) was produced in water and of benzovindiflupyr in DMSO at a concentration of 10,000 ppm. […] The diluted compound was applied to the middle segment of L2 using a conventional cotton stick; the cotton stick was soaked in the diluted compound and rubbed several times on the adaxial leaf surface between the two marks. One day later, the complete plant was inoculated with a fungal spore suspension using a paint brush. The spore suspension was applied until before run-off.
For infection with Zymoseptoria tritici (preventive), the test plants were inoculated by spraying a spore suspension on them one day after application (1.5 Mio spores per ml in water supplemented with 0.01% Tween20). After an incubation period of 4 days at 22 °C/21 °C (day/night) and 95% rh, the inoculated test plants were kept at 22 °C/21 °C (day/night) and 70% rh in a greenhouse.
(§2) The three segments of the leaf were evaluated individually.

[4] = test system: Puccinia recondita f. sp. tritici; assay: Leaf painting assay in wheat seedling, Puccinia recondita preventive; assay type: in vivo; conditions: 188.00 ppm, preventive
Procedure: as §1
For infection with Puccinia recondita (preventive): The test plants were inoculated by spraying them with a spore suspension one day after application (spore suspension at 80,000 spores per ml in water supplemented with Tween20 at 0.1%). After an incubation period of 1 day at 20 °C and 95% rh, the inoculated test plants were kept at 20 °C and 60% rh in a greenhouse.
as §2

[5] = test system: Puccinia recondita; assay: Mixture with malonomicin, leaf disc, Puccinia recondita curative; assay type: in vivo; conditions: foliar, 192 h, read-out: control of fungal growth
From the text: (§3) An additional ingredient having pesticidal activity, for instance fungicidal activity may result in an unexpected synergistic activity. […] The action to be expected E for a given active ingredient combination obeys the so-called COLBY formula and can be calculated as follows (COLBY, S. R. “Calculating synergistic and antagonistic responses of herbicide combination”. Weeds, Vol. 15, pages 20-22; 1967): • ppm=milligrams of active ingredient (=a.i.) per liter of spray mixture • X=% action by active ingredient A) using p ppm of active ingredient • Y=% action by active ingredient B) using q ppm of active ingredient.
(§4) According to COLBY, the expected (additive) action of active ingredients A)+B) using p+q ppm of active ingredient is:
(§5) In mathematical terms, synergism corresponds to a positive value for the difference of (O-E). In the case of purely complementary addition of activities (expected activity), said difference (O-E) is zero. A negative value of said difference (O-E) signals a loss of activity compared to the expected activity.
(§6) A stock solution for oligosaccharide compound according to the present invention was produced in water plus 0.025% Tween®20. Malonomicin was produced according to Law et al, 2018 (Nature Catalys is | VOL 1 | DECEMBER 2018 | 977-984). A stock solution of malonomicin was produced in water plus 0.025% Tween®20.
(§7) Assays to test efficacy of mixtures of the compound of Formula (I) in combination with malonomicin on the control of fungal pathogens in a leaf disc assay were designed for two 24 well plates.
(§8) Table 8 and 9: Outline of 24 well testplate (1) and testplate (2) including concentration of compounds sprayed per well. The upper number in the cell indicates the oligosaccharide compound of the present invention concentration (ppm), the lower number malonomicin concentration (ppm). Column (1) holds a dilution series of compound of Formula (I), row (2-D) hold a dilution series of malonomicin. Well 2-D-(1) represents an untreated check. This design was applied for tests including Puccinia recondita (EPPO code: PUCCRE) with preventive and curative spray timing.
(§9) A first set of master plates with 1× concentrated spray solution of the compound of Formula (I) stock diluted in water with concentrations according to Table 8, Table 9, Table 11 and Table 12, respectively, was prepared. Each well contained 0.025% Tween®20. Accordingly, a second set of master plates with 1× concentrated malonomicin stock diluted in water was prepared. Each well of the second set contained 0.025% Tween®20. Leaf segments placed on agar in 24 well plates are sprayed with 8 ul of solution from the master plate containing compound of Formula (I) and the leaf segments were let to dry, followed 2 hours later by 8 ul of solution from the master plate containing malonomicin. After second sprays have dried, leaf segments are infected with fungal spores to obtain a preventive application timing. Alternatively, leaf segments infected one day before spray of the compounds are used, resulting in a curative spray timing. In addition, several plates were produced where leaf segments were sprayed 2× in absence of test compound (with only Tween®20), representing the untreated check samples. For each leaf segment percent leaf coverage of disease symptoms was assessed. Percent leaf coverage reduction relative to the untreated check was calculated. Efficacy of the mixtures was tested in duplicate and on different fungal species. Reported efficacy values are the average of two replicate results.
Puccinia recondita (EPPO Code: PUCCRE) with Curative Spray Timing.
Wheat (cultivar Kanzler) leaf segments are placed on agar in multiwell plates (24-well format). The leaf disks are then inoculated with a spore suspension of the fungus. One day after inoculation the test solution is sprayed (8 ul per well). After appropriate incubation the activity of a compound is assessed 8 dpi (days after inoculation) as curative fungicidal activity

[6] = test system: Puccinia recondita; assay: Mixture with malonomicin, leaf disc, Puccinia recondita preventive; assay type: in vivo
From the text: as §3, §4, §5, §6, §7, §8
as §9, with “In addition, several plates were produced where leaf segments were sprayed 2× in absence of test compound (with only Tween®20), representing the untreated check samples.” left out, “Efficacy of the mixtures was tested in duplicate and on different fungal species. Reported efficacy values are the average of two replicate results.” left out
Wheat (cultivar Kanzler) leaf segments are placed on agar in multiwell plates (24-well format) and sprayed with test solutions (8 ul per well). […] After appropriate incubation the activity of a compound is assessed 8 dpi (days after inoculation) as preventive fungicidal activity.

[7] = test system: Blumeria graminis f.sp. tritici; assay: Mixture with malonomicin, leaf disc, Blumeria graminis f.sp. tritici preventive; assay type: in vivo; conditions: foliar, 168 h, read-out: control of fungal growth
From the text: as §6, §7
(§10) Table 11 and Table 12: Outline of 24 well testplate (3) and testplate (4) including concentration of compounds per well. The upper number in the cell indicates the oligosaccharide compound of the present invention concentration (ppm), the lower number malonomicin concentration (ppm). Column (1) holds a dilution series of compound of Formula (I), row (4-D) hold a dilution series of malonomicin. Well 4-D-(1) represents an untreated check. This design was applied for tests including Blumeria graminis f.sp. tritici (EPPO code: ERYSGT) with preventive spray timing and Parastagonospora nodorum (EPPO code: LEPTNO) with preventive spray timing.
as §9
Blumeria graminis f.sp. tritici (EPPO Code: ERYSGT) with Preventive Spray Timing
(§11) Wheat (cultivar Kanzler) leaf segments are placed on agar in multiwell plates (24-well format) and sprayed with test solutions (8 ul per well). After drying, the leaf disks are inoculated with spores of the fungus. After appropriate incubation the activity of a compound is assessed 7 dpi (days post inoculation) as preventive fungicidal activity.

[8] = test system: Parastagonospora nodorum; assay: Mixture with malonomicin, leaf disc, Parastagonospora nodorum preventive; assay type: in vivo
From the text: as §6, §7, §10, §9
Parastagonospora nodorum (EPPO Code: LEPTNO)
as §11, with “a spore suspension” for “spores”, “4” for “7”, “after” for “post”

`O=C(O)c1cc(Cl)nc(Cl)c1` [INA, 2.6-dichloro-isonicotinic acid, reference compound] was tested, and the “Fold change (peak ROS)” value [1] was 1.8 and the activity at 100 µM [2] was 27.6%.

For `Cn1cc(C(=O)Nc2cccc3c2C2CCC3C2=C(Cl)Cl)c(C(F)F)n1` (centres unmarked) [benzovindiflupyr, reference compound], the “% reduction fungal growth” value [3] was 99%, the “% reduction fungal growth” value ([4]; Experiment 2, base segment) was 7% and the “% reduction fungal growth” value ([4]; Experiment 2, middle segment (treated)) was 100%. For the same compound, the “% reduction fungal growth” value ([4]; Experiment 2, tip segment) was 100%, the “% reduction fungal growth” value ([4]; Experiment 3, base segment) was 21% and the “% reduction fungal growth” value ([4]; Experiment 3, middle segment (treated)) was 100%. The “% reduction fungal growth” value ([4]; Experiment 3, tip segment) was 100%, the “% reduction fungal growth” value ([4]; Experiment 4, base segment) was 3% and the “% reduction fungal growth” value ([4]; Experiment 4, middle segment (treated)) was 100%. For the same compound, the “% reduction fungal growth” value ([4]; Experiment 4, tip segment) was 100%.

For `NC[C@@H]1NC(=O)C(C(=O)CC(NC(=O)[C@@H](N)CO)(C(=O)O)C(=O)O)=C1O` [malonomicin, {[(2S)-2-amino-3-hydroxypropanoyl]amino} {2-[(5S)-5-(aminomethyl)-4-hydroxy-2-oxo-2,5-dihydro-1H-pyrrol-3-yl]-2-oxoethyl} malonic acid, reference compound], the inhibition of growth at 0.74 µg/mL ([5]; malonomicin 0.74 ppm solo) was 35%, the inhibition of growth at 2.22 µg/mL ([5]; malonomicin 2.22 ppm solo) was 70% and the inhibition of growth at 6.67 µg/mL ([5]; malonomicin 6.67 ppm solo) was 100%. For the same compound, the inhibition of growth at 20 µg/mL ([5]; malonomicin 20 ppm solo) was 100%, the inhibition of growth at 200 µg/mL ([5]; malonomicin 200 ppm solo) was 100% and the “control of fungal growth” value ([6]; malonomicin 0.74 ppm solo) was 0%. The “control of fungal growth” value ([6]; malonomicin 2.22 ppm solo) was 10%, the “control of fungal growth” value ([6]; malonomicin 6.67 ppm solo) was 80% and the “control of fungal growth” value ([6]; malonomicin 20 ppm solo) was 100%. For the same compound, the “control of fungal growth” value ([6]; malonomicin 200 ppm solo) was 100%, the inhibition of growth at 7.4 µg/mL ([7]; malonomicin 7.4 ppm solo) was 0% and the inhibition of growth at 22.2 µg/mL ([7]; malonomicin 22.2 ppm solo) was 0%. For the same compound, the inhibition of growth at 66.7 µg/mL ([7]; malonomicin 66.7 ppm solo) was 70%, the inhibition of growth at 200 µg/mL ([7]; malonomicin 200 ppm solo) was 100% and the inhibition of growth at 600 µg/mL ([7]; malonomicin 600 ppm solo) was 75%. The “control of fungal growth” value ([8]; malonomicin 7.4 ppm solo) was 0%, the “control of fungal growth” value ([8]; malonomicin 22.2 ppm solo) was 45% and the “control of fungal growth” value ([8]; malonomicin 66.7 ppm solo) was 50%. The “control of fungal growth” value ([8]; malonomicin 200 ppm solo) was 90% and the “control of fungal growth” value ([8]; malonomicin 600 ppm solo) was 95%.
